Source: patent US11572369B2, “Bicyclic pyridine compositions and methods of using the same for cancer therapy” (UNIVERSITY OF SOUTH CAROLINA, priority 2019, dated 2023)
pIC50, pKd: −log10 of the molar value.

Key:
MYC-CaP-CR tumors = experiment: MYC-CaP-CR subcutaneous tumors in intact FVB male mice; format: in vivo, mouse; details: intact (uncastrated) FVB male mice
CTK = target: T1, CTK (Homo sapiens, UniProt P42679); experiment: KINOMEscan; format: binding; details: 2000 nM
T1 construct: DNA label; purchased DiscoveRx (KINOMEscan scanMAX panel)
T1 sequence (P42679 whole entry): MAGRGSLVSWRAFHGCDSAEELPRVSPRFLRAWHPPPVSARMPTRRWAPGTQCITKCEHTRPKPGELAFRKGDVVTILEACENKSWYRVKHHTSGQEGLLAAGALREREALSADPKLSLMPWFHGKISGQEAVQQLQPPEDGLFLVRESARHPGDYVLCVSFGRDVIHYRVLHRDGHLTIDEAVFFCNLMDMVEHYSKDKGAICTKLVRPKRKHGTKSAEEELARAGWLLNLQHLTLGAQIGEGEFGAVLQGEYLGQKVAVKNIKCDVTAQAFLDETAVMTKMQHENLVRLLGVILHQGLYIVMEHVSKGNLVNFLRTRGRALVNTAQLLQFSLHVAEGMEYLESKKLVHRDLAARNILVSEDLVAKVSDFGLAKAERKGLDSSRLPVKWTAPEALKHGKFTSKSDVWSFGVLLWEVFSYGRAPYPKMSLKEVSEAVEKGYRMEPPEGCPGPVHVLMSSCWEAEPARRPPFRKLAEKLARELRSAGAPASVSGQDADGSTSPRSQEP

EPHA1 = target: T2, EPHA1 (Homo sapiens, UniProt P21709); experiment: KINOMEscan; format: binding; details: 2000 nM
T2 construct: purchased DiscoveRx (KINOMEscan scanMAX panel)
T2 sequence (P21709 26-976): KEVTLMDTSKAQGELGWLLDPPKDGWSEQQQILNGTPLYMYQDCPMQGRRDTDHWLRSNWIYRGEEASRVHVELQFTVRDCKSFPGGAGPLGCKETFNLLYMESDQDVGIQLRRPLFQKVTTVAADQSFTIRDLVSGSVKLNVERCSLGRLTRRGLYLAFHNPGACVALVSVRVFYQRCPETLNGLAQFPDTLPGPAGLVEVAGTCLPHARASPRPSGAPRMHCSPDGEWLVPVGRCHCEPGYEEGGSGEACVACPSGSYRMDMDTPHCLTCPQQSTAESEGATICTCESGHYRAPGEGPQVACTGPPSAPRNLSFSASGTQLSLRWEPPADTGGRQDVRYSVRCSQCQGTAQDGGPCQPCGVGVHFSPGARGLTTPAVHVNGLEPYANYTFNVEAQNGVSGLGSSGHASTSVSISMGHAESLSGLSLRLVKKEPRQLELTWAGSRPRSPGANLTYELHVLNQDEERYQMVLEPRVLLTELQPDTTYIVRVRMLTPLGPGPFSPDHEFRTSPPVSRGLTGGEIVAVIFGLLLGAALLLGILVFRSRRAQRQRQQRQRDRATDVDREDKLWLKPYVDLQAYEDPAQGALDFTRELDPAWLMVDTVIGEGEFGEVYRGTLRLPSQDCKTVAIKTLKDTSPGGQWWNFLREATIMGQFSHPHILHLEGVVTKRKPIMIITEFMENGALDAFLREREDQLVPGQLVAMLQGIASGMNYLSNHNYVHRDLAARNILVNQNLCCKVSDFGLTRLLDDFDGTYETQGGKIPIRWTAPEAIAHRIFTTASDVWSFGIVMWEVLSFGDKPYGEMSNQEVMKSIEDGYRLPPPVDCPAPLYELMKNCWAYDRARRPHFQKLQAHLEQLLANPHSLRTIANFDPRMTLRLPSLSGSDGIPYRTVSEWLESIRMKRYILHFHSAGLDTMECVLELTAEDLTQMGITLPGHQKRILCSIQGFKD

CSNK1A1 = target: T3, CSNK1A1 (Homo sapiens, UniProt P48729); experiment: Kd Elect binding assay (DiscoverX); details: duplicates
T3 construct: DNA label (qPCR read-out); purchased DiscoverX (assay service)
From the text: (§1) Nat. Biotechnol. 23, 329-336 (2005).

CDK8 = target: T4, CDK8 (Homo sapiens, UniProt P49336); experiment: Kd Elect binding assay (DiscoverX); details: duplicates
T4 construct: DNA label (qPCR read-out); purchased DiscoverX (assay service)
T4 sequence (P49336 whole entry): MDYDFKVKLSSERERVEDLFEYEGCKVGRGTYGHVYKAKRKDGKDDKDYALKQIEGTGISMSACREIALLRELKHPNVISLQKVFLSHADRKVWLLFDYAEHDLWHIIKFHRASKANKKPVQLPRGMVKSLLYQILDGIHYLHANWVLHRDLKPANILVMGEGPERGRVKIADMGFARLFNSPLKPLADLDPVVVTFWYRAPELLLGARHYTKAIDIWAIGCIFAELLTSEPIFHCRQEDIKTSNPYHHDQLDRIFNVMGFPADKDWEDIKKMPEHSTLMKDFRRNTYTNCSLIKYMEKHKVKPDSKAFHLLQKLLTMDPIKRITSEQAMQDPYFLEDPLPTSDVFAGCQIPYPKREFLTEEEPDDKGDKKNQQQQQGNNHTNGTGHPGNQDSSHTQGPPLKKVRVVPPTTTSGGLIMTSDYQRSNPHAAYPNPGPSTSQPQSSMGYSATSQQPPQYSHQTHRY
From the text: as §1

CDK19 = target: T5, CDK19 (Homo sapiens, UniProt Q9BWU1); experiment: Kd Elect binding assay (DiscoverX); details: duplicates
T5 construct: DNA label (qPCR read-out); purchased DiscoverX (assay service)
T5 sequence (Q9BWU1 whole entry): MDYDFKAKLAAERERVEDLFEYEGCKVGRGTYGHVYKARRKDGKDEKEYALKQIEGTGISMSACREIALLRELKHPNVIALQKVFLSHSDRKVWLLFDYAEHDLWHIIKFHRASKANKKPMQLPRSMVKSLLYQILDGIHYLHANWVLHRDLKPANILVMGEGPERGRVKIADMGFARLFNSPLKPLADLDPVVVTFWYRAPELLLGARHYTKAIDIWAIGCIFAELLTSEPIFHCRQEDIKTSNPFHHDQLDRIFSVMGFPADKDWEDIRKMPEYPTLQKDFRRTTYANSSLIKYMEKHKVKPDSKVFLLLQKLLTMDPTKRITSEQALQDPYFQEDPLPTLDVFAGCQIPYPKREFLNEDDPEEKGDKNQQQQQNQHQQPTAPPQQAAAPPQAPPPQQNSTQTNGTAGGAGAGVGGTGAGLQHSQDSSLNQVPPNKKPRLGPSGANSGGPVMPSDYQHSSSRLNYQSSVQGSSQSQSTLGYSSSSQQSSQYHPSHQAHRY
From the text: as §1

GSK3A = target: T6, GSK3A (Homo sapiens, UniProt P49840); experiment: Kd Elect binding assay (DiscoverX); details: duplicates
T6 construct: DNA label (qPCR read-out); purchased DiscoverX (assay service)
From the text: as §1

RIOK2 = target: T7, RIOK2 (Homo sapiens, UniProt Q9BVS4); experiment: Kd Elect binding assay (DiscoverX); details: duplicates
T7 construct: DNA label (qPCR read-out); purchased DiscoverX (assay service)
From the text: as §1

[1] = test system: luciferase-expressing MV4-11 cells; experiment: MV4-11 leukemia in NSG mice, bioluminescence imaging; format: in vivo, mouse; details: for inhibition of leukemia growth (BLI): 23 days, NSG mice
Protocol: Assay protocol. For in vivo studies, 7-week-old female NSG mice (Jackson Laboratories) were injected with 2×10^6 luciferase-expressing MV4-11 cells in the tail vein. Following engraftment, BLI was performed on the inoculated mice 5 days after cell inoculation. After BLI, the mice were sorted into two matching cohorts of 10 mice and one cohort of 5 mice. BLI detection was done with IVIS Lumina II Series Hardware for In-Vivo Imaging with optional XFOV lens and Living Image software. The IVIS setting for sorting mice into cohorts was set for high sensitivity: Bin 8, F1.2, 180 sec. Subsequent exposures (week 1-5) were set for increased resolution: Bin 4, F1.2, 120 sec.
Treatment was initiated on day 6 following cell-inoculation and continued for 23 days. Ten mice received Vehicle only (5% carboxylmethyl cellulose) by gavage (200 μl). […] This diet matches the diet used for normal mouse feeding, with the exception of added dye and 15u. The control MV4-11 xenografted mice (Vehicle) developed a vigorous tumor population as detected by BLI (FIG. 10B-10C). […] Survival of the mice post treatment was monitored.

[2] = Long-term MTD study, medicated diet, CD-1 mice; format: in vivo, mouse; details: female CD-1 mice, 1000 ppm medicated diet, first week
Protocol: In another long-term MTD in vivo assay, groups of male and female CD-1 mice were fed regular diet (control) or 15u-medicated diet (500 ppm or 1000 ppm) for 4 or 5 weeks (FIG. 12B). The daily doses of 500 ppm and 1000 ppm groups were estimated to be about 50-100 mg/kg and 100-200 mg/kg, respectively, based on daily diet consumption.

[3] = test system: PSA expression in CRPC cell line C4-2; experiment: PSA expression in C4-2 cell culture supernatant; format: cell-based; details: C4-2, 96 h, read-out: IC50, suppression of PSA expression
From the text: CDK8/19 inhibition decreases the expression of certain androgen-receptor (AR) inducible genes including PSA, the most common marker of prostate cancer, and the growth of castration-refractory prostate cancers (CRPC).

[4] = test system: 4T1 murine triple-negative breast cancer; experiment: 4T1 TNBC lung metastasis survival after primary tumor removal; format: in vivo, mouse; details: 25 mg/kg oral b.i.d. after removal of primary tumor
MDA-MB-468 xenografts = MDA-MB-468 xenografts in NSG mice; format: in vivo, mouse; details: 66 days
Protocol: To evaluate the effect of CDK8/19 inhibition on in vivo growth of MDA-MB-468 xenografts, 1 million cells with 40% Matrigel ([…] total volume) were injected s.c. into the right flanks of immunodeficient NSG female mice (9 weeks old). 11 days after inoculation, mice were randomized by tumor size into two groups (n=9), with the average tumor volume 115 mm^3 in each group.

[5] = test system: alkaline phosphatase (ALPase) in bone marrow stromal cell line ST2; details: concentration that enhances ALPase activity to 200% of control; ST2 cells; Saito (2013); cited from earlier work
MV4-11 cells = experiment: MV4-11-Luc proliferation assay; details: Homo sapiens, MV4-11, read-out: Inhibition Potency MV4-11-Luc Assay
ERBB4 = target: T8, ERBB4 (Homo sapiens, UniProt Q15303); experiment: KINOMEscan; format: binding; details: 2000 nM
T8 construct: DNA label (qPCR read-out); purchased DiscoveRx (KINOMEscan ScanMAX panel)
T8 sequence (Q15303 26-1308): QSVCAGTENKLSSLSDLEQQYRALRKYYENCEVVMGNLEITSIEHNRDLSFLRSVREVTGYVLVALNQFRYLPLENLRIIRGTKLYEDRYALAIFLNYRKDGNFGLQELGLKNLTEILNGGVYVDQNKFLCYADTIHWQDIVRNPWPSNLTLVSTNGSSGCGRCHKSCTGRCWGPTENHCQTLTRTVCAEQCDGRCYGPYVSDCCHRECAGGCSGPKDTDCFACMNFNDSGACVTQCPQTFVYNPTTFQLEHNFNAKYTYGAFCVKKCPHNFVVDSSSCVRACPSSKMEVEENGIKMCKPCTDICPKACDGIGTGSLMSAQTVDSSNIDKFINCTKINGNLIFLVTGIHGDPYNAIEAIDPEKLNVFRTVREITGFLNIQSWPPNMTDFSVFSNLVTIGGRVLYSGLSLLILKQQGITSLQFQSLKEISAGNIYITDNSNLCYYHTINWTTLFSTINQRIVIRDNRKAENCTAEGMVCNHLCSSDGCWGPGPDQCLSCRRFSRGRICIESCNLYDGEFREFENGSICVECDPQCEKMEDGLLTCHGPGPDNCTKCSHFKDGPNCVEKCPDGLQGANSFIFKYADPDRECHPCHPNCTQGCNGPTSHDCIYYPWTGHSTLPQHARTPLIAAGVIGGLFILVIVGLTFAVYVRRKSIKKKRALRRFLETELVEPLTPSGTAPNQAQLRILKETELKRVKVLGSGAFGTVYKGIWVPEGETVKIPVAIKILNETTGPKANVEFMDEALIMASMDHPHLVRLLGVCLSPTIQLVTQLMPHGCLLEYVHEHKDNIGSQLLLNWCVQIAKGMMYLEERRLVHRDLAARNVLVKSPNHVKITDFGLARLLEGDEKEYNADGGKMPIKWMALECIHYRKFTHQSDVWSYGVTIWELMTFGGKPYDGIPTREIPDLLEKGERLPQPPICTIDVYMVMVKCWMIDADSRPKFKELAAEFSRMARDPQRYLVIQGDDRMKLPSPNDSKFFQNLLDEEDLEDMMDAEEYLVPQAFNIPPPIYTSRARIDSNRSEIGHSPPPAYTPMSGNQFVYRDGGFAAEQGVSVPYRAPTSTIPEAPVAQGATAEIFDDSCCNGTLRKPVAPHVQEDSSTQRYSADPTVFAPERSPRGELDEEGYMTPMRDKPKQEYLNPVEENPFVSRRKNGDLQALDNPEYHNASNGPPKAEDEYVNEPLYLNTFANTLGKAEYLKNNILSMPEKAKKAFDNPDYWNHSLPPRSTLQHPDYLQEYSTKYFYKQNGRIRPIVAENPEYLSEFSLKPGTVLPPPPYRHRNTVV

[6] = Mouse oral PK of 15u/15w mixture at 30 mg/kg; details: female CD1 mice, oral 30 mg/kg of each compound, latest timepoint 8 hrs
STK36 = target: T9, STK36 (Homo sapiens, UniProt Q9NRP7); experiment: KINOMEscan; format: binding; details: 2000 nM
T9 construct: DNA label (for qPCR read-out); purchased DiscoveRx (KINOMEscan scanMAX panel, contract assay)
T9 sequence (Q9NRP7 whole entry): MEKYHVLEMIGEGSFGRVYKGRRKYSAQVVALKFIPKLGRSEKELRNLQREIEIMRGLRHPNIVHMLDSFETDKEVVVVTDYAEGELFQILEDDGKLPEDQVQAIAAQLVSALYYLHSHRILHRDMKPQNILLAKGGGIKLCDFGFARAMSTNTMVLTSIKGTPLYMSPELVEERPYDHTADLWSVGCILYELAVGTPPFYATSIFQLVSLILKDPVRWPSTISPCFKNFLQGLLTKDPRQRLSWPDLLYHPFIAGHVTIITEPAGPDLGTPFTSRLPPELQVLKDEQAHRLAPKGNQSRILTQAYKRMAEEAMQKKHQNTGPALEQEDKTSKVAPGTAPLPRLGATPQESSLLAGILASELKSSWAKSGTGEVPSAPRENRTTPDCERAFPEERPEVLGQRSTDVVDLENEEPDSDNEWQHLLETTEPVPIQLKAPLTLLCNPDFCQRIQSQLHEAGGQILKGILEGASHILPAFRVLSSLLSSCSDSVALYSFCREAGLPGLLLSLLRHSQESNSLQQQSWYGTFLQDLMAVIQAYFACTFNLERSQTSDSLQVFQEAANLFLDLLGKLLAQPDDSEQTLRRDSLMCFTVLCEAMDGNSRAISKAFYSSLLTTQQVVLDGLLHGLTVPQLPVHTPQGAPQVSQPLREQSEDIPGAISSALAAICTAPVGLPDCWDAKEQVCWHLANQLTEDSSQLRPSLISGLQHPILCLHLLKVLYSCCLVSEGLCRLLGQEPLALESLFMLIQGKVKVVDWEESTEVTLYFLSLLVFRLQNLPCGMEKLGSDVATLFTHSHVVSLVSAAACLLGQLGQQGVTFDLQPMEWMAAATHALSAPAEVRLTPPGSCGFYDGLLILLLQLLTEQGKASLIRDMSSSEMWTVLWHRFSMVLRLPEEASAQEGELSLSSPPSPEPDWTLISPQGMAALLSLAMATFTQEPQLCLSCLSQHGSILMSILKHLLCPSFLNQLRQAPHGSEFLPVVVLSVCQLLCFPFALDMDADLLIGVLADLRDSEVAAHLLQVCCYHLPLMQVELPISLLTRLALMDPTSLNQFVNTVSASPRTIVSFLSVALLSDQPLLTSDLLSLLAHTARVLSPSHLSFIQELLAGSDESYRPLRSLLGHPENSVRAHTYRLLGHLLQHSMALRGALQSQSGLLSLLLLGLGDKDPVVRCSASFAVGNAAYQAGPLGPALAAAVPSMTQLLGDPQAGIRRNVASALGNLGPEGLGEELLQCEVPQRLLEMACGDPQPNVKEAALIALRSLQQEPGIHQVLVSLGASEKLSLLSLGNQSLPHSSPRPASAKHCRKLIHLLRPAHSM

MYC-CAP-CR cells = experiment: Short-term cell proliferation assay, MYC-CAP-CR; format: cell-based, murine; details: androgen-containing media
[7] = test system: CRPC cell line 22rv1 xenograft; experiment: 22rv1 CRPC xenograft in castrated male nude mice; format: in vivo, mouse; details: 50 mg/kg orally daily
Protocol: In another in vivo study, CRPC cell line 22rv1 was grown as a xenograft in castrated male nude mice.

CDK8/19 = experiment: NFκB Activity Assay (NFκB luciferase reporter, parental 293 cells); format: cell-based; details: read-out: Inhibition Potency HEK293-NFkB-Luc Assay
[8] = Oral PK in female CD-1 mice, solution formulation; details: oral gavage in solution, 30 mg/kg (15u series) or 16/18 mg/kg (15w series)
[9] = medicated diet 250 ppm plus daily gavage 5 then 8 mg/kg

Question: Which results are given for `CN(C)C(=O)c1ccc(N2CCCN(c3ccnc4sc(C(N)=O)c(N)c34)CC2)cc1` [15u, 3-amino-4-(4-(4-(dimethylcarbamoyl)phenyl)-1,4-diazepan-1-yl)thieno[2,3-b]pyridine-2-carboxamide]?
Answer: tumor volume and weight (MYC-CaP-CR tumors): modest effect; % Ctrl (CTK): 92 % Ctrl; % Ctrl (EPHA1): 92 % Ctrl; pKd (CSNK1A1): 6.64; pKd (CDK8): 7.11; pKd (CDK19): 7.19; pKd (GSK3A): 5.25; pKd (RIOK2): 6.62; inhibition of leukemia growth (BLI) ([1]; 30 mg/kg twice daily by gavage): 94%; inhibition of leukemia growth (BLI) ([1]; medicated chow containing 15u at 1 g/kg): 99.7%; survival post treatment ([1]; oral gavage, FIG. 10D): superior survival rates; weight loss [2]: 5-10%; pIC50 [3]: 7.56; mouse survival of the metastatic disease [4]: significantly increased mouse survival; mouse body weights (MDA-MB-468 xenografts; long-term treatment): no detrimental effects; final tumor weights (MDA-MB-468 xenografts; [9]): significantly lower; tumor volume (MDA-MB-468 xenografts; [9]): significant reduction in tumor volume; ALP activity Assay EC200 [5]: 31.9 nM; pIC50 (MV4-11 cells): 7.52; % Ctrl (ERBB4): 85 % Ctrl; average serum concentration at 8 hrs as % of Cmax [6]: 64.4%; % Ctrl (STK36): 100 % Ctrl; MYC-CAP-CR cell growth (MYC-CAP-CR cells): little effect; adverse effects and body weight [7]: no apparent adverse effects and no diminution of mouse body weight; xenograft tumor growth [7]: strongly suppressed the tumor growth

Question: For `[2H]C([2H])([2H])N(C(=O)c1ccc(N2CCCN(c3ccnc4sc(C(N)=O)c(N)c34)CC2)cc1)C([2H])([2H])[2H]` [15u_D6, 3-amino-4-(4-(4-(bis(methyl-d3)carbamoyl)phenyl)-1,4-diazepan-1-yl)thieno[2,3-b]pyridine-2-carboxamide], which “% Ctrl” value (CTK) is on record?
Answer: 100 % Ctrl

Question: And the “% Ctrl” value (EPHA1)?
Answer: 95 % Ctrl

Question: What about the pIC50 (CDK8/19) of the same compound?
Answer: 8.11

Question: What about the “% Ctrl” value (ERBB4) of the same compound?
Answer: 100 % Ctrl

Question: And the “PK (AUC 0-8 h) versus undeuterated parent” value [8]?
Answer: slightly improved the PK

Question: And the “% Ctrl” value (STK36)?
Answer: 100 % Ctrl
